This note sets out measurements from paper PMC9698716, “From Serendipity to Rational Identification of the 5,6,7,8-Tetrahydrobenzo[4,5]thieno[2,3-d]pyrimidin-4(3H)-one Core as a New Chemotype of AKT1 Inhibitors for Acute Myeloid Leukemia” (Pharmaceutics, 2022).

The IC50 is the concentration at which inhibition is half-maximal. One may read the inhibition as the relative decrease from the control value, in per cent. By Ki is commonly meant a measure of affinity in units of concentration, obtained from inhibition or displacement.

For series [1], the target named is T1, AKT1 (Homo sapiens, UniProt P31749).
T1 construct: purchased Kinase Logistics, Meyn, Germany #Aps 01-101
The series is described as follows: AKT1 enzymatic inhibition assay. The format is biochemical. The protocol: The studied compounds, including the standard inhibitor Staurosporine (Thermo-Fisher , Madrid, Spain, Invitrogen BP2541), were incubated with 3 nM AKT1 (#Aps 01-101; Kinase Logistics, Meyn, Germany) and 1.5 μM Profiler Pro peptide 6 (#760350; Perkin Elmer, Tres Cantos, Madrid, Spain) in the presence of different concentrations of Adenosine 5′triphosphate disodium salt, ATP (#A2383; Sigma Aldrich, Madrid, Spain) in a 384-well Microplate (#781076; Greiner, San Sebastián de los Reyes, Madrid, Spain). The reaction rate was calculated from kinetic measurements carried out measured in a Caliper EzReader LabChip 3000 (Caliper, Hopkinton, MA, USA) reader with samples taken each 10 min for a total time of 60 min. The percentage of substrate conversion rate was plotted versus the ATP concentration. The data was analyzed by non-linear fitting with GraphPad Prism by employing the Michaelis–Menten equation. The buffer assay used in the inhibition hAKT1 assay is: Hepes 100 mM, DMSO 4%, Brij 0.003%, Tween 20 0.004%, MgCl2 10 mM, with a pH = 7.5.
The Ki values were calculated by employing the GraphPad Prism equations.

For series [2], the system named is OCI-AML3. Put plainly: Cell growth, viable cell count by trypan blue exclusion. The format is cell-based, human. The conditions noted are these: OCI-AML3, 5 µM, at 48 and 72 h.
In series [3] the test system is OCI-AML2. The description is as above. It counts as cell-based, human. The note with it: OCI-AML2, 5 µM, at 48 and 72 h.
For series [4], the system named is E4-BP1 phosphorylation at site S65. Put plainly: Western blot of AKT signaling pathway in AML cell lines. The note with it: increasing concentrations (0.5 and 5 µM), 24 and 48 h, OCI-AML3, IMS-M2, OCI-AML2. The format is cell-based, human. As for the experimental part:
(§1) Immunoblotting was conducted as described previously. Briefly, fresh cell pellets (0.2–0.5 × 10^6/test for AML cell lines) were dissolved directly in 30–60 μL of Laemmli sample buffer 1× (1.5 M Tris-HCl pH 6.8, glycerol, β-mercaptoethanol, SDS, bromophenol blue) and boiled at 95 °C for 5 min. The proteins were separated by SDS-polyacrylamide gel electrophoresis (SDS-PAGE) on Precast 4–15% gradient gels (Biorad, Hercules, CA, USA) transferred onto nitrocellulose membranes (GE Healthcare, Piscataway, NJ, USA) and probed with specific primary antibodies followed by horseradish peroxidase-conjugated secondary antibodies (GE Healthcare Lifesciences). The polypeptides were visualized using enhanced chemiluminescence (Luminata Crescendo, Merck Millipore, Burlington, MA, USA) according to the manufacturer’s instructions. The bands were visualized using the Biorad Chemidoc and the images were processed using the image lab software (Biorad) and Adobe Photoshop (Ps CC 2019). β-actin expression levels were used as a control for protein loading, as indicated.
(§2) The primary antibodies used for western blot analyses are the following: mouse monoclonal anti-human β-actin (Clone AC-15; dilution 1:5000) from Sigma Aldrich (St. Louis, MO, USA); rabbit monoclonal anti-human Cleaved poly (ADP-ribose) polymerase (c-PARP) (Clone Asp 214; dilution 1:1000); rabbit monoclonal phospho-Akt (Ser473) (clone D9E, dilution 1.500); rabbit polyclonal phospho-mTOR (Ser2448) (dilution 1:500); rabbit polyclonal phospho-4E-BP1 (Ser65) (dilution 1:500); rabbit monoclonal Akt1 (clone D9R8K, dilution 1:500); rabbit polyclonal 4E-BP1 (dilution 1:500); and rabbit polyclonal mTOR (dilution 1:500), all from Cell Signaling (Cell Signaling Technology, Inc., Danvers, MA, USA).
For orientation: In western blotting, separated proteins are transferred to a membrane and probed.

Series [5] has as its system phospho-AKT, at site S473. Described as above. It counts as cell-based, human. As for the experimental part: as §1, §2
Series [6] has as its system phospho-mTOR, at site S2448. The series is described as above. The format is cell-based, human. The note with it: increasing concentrations (0.5 and 5 µM), 24 and 48 h, OCI-AML3, IMS-M2, OCI-AML2. As for the experimental part: as §1, §2
The subject of series [7] is cleaved-PARP. Put plainly: Western blot of apoptosis marker in AML cell lines. It counts as cell-based, human. The note with it: 5 µM, 48 h. The protocol:
as §1, with “indicated. […]” for “indicated.”

The nature of series [8]: Solubility screen assay to determine chemical aggregation (nephelometry). The conditions noted are these: AKT1 assay buffer pH 7.5, 37 °C, 2 h, NEPHELOstar Plus. The format is physicochemical. As for the experimental part:
The stock solutions (10–2 M) of the compound T126 were diluted to a decreased molarity, from 100 µM to 0.0001 µM, in 384-well transparent plates (Greiner 781801) with 1% DMSO: 99% buffer Hepes 100 mM, DMSO 4%, Brij 0.003%, Tween 20 0.004%, MgCl2 10 mM, at a pH = 7.5. Incubation occurred at 37 °C and the results were read after 2 h in a NEPHELOstar Plus (BMG LABTECH, Ortenberg, Germany). The results were adjusted to a segmented regression to obtain the maximum concentration in which the compounds were soluble.

T1 sequence (P31749 whole entry): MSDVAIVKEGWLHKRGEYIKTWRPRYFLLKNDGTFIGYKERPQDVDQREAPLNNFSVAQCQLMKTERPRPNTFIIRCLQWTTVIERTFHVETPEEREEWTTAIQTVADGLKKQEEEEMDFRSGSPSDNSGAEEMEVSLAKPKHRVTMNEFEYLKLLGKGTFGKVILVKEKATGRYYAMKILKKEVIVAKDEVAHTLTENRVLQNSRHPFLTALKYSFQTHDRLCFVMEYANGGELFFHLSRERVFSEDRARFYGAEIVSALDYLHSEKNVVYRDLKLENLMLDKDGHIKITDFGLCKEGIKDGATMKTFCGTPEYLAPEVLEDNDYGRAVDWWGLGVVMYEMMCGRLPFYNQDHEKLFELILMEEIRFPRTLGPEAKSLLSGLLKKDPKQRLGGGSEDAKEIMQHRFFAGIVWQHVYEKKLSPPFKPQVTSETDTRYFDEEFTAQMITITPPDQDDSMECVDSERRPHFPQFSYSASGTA

Consider `O=c1[nH]c(-c2ccc(O)c(O)c2)nc2sc3c(c12)CCCC3` [T126], for which the IC50 in series [1] turned out to be 1990 ± 110 nM. Besides, the inhibition at 10 µM in series [1] (10 μM compound, read-out: %inh (percentage of inhibition of AKT1 activity)) was 87%. In addition, the inhibition constant (Ki) in series [1] (read-out: Ki (AKT1 inhibition constant)) was 410 nM. The cell growth inhibition result in series [2] and in series [3] was “significant cell growth inhibition” throughout. In addition, the “phosphorylation of 4E-BP1 (S65)” value in series [4] is “reduction of its phosphorylation levels”. The “inhibition of p-AKT” value in series [5] (OCI-AML3, 4 h, 1 and 2.5 µM) was “inhibition of p-AKT was already observed”. For the same compound, in series [5] (increasing concentrations (0.5 and 5 µM), 24 and 48 h, OCI-AML3, IMS-M2, OCI-AML2), the “phosphorylation of AKT1 (S473)” value is “decreased phosphorylation”. Further, the “phosphorylation of mTOR (S2448)” value in series [6] is reported as “decreased phosphorylation”. In series [7], the “cleaved-PARP (marker of apoptosis)” value is “detected”. Also, in series [8], the “concentration up to which no aggregation occurs” value is listed as ≥ 100 µM.
